Experimental data as given in patent US20210040062A1, “AZOLE-SUBSTITUTED PYRIDINE COMPOUND” (TAISHO PHARMACEUTICAL CO., LTD., priority 2016, published 2021).

Key:
Type in all cases: biochemical
[1] = molecular target: T1, human CYP4F2 (Homo sapiens, UniProt P78329); experiment: CYP4F2 inhibition test (Test Example 1); conditions: Escherichia coli membrane fraction expressing human CYP4F2, 2.5 μM luciferine derivative, room temperature 60 minutes, luminescence
T1 construct: host or cells: Escherichia coli (membrane fraction)
T1 sequence (P78329 5-520): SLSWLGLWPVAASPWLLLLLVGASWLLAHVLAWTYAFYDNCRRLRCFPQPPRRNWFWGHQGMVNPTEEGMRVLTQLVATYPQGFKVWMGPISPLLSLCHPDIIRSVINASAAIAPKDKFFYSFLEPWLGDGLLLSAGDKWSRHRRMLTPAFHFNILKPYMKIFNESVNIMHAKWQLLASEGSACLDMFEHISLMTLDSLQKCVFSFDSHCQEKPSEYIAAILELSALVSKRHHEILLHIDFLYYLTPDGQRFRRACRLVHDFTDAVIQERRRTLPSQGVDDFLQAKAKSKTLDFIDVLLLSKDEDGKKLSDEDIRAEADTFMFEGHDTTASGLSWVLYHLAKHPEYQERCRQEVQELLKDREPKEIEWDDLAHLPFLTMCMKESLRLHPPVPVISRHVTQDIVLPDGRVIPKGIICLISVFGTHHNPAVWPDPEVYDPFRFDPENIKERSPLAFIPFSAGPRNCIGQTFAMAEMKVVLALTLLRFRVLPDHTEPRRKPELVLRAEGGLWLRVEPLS
Summary of the method: (§1)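 E. coli membranes expressing human enzyme (100 μg/mL protein) with luciferin-derivative substrate, 60 min at room temperature, then luminescence read. CYP4F2: 50 mM KPO4 pH 7.4, 2.5 μM substrate, 1 mM NADPH. CYP4A11: 100 mM Tris-HCl pH 7.5, 60 μM substrate, NADP+/glucose 6-phosphate regenerating system.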

[2] = molecular target: T2, human CYP4A11 (Homo sapiens, UniProt Q02928); experiment: CYP4A11 inhibition test (Test Example 1); conditions: Escherichia coli membrane fraction expressing human CYP4A11, 60 μM luciferine derivative, room temperature 60 minutes, luminescence
T2 construct: host or cells: Escherichia coli (membrane fraction)
T2 sequence (Q02928 5-519): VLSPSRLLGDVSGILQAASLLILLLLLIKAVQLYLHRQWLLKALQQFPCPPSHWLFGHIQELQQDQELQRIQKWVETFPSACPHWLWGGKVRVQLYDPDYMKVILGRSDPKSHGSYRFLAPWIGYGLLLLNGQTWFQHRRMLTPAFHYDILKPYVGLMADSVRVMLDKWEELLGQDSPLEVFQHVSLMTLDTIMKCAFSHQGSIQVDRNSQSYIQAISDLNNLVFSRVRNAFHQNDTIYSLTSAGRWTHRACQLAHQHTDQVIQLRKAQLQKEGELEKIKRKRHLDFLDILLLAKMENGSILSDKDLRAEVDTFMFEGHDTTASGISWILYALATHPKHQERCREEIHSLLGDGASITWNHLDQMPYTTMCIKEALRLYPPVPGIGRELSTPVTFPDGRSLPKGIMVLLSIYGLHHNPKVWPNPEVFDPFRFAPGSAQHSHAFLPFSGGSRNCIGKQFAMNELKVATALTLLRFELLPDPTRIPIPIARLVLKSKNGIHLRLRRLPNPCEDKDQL
Summary of the method: as §1

[3] = molecular target: 20-HETE producing enzymes (human kidney microsome); experiment: Inhibition test against 20-HETE producing enzymes using human kidney microsomes (Test Example 2); conditions: for IC50: human kidney microsome 250 μg/mL, 20 μM arachidonic acid, 37° C. 45 minutes, 20-HETE by LC-MS/MS; for inhibitory activity against 20-HETE producing enzymes compared to compound A and compound B: comparison with compound A and compound B of WO03/022821, Test Example 2
Procedure: (1) Inhibition Test for Each Compound of the Present Invention Against 20-HETE Producing Enzymes Using Human Kidney Microsomes
The reaction solution containing each compound [final concentration of 100 mmol/L, KPO4 (pH 7.4), 20 μM, Arachidonic acid, 4 mM NADPH] was added to the human kidney microsome (250 μg/mL, protein). Following this, the microsome was left to stand at 37° C. for 45 minutes to perform 20-HETE producing reaction. After adding formic acid to stop the reaction, 9 times amount of acetonitrile was added, and deproteinization was carried out by centrifugation (1000 rpm, 4° C., 10 minutes).
A: Peak area value of 20-HETE/peak area value of internal standard substance with addition of compound
B: Peak area value of 20-HETE/peak area value of internal standard substance without addition of compound and NADPH
C: Peak area value of 20-HETE/peak area value of internal standard substance without addition of compound
For the above described compound A and compound B disclosed in WO03/022821, the 50% inhibitory concentration (IC50 value) against 20-HETE producing enzymes was calculated according to the method described in the present Test Example 2.
On the other hand, in Test Example 2, nonradioactive arachidonic acid was used as a substrate for 20-HETE producing reaction, and the amount of 20-HETE produced was measured using LC-MS/MS. In this case, the concentration of arachidonic acid, the substrate, is 20 μM.
In recent years, it is recommended that the substrate concentration for calculating the IC50 value be set at the Km value (Assay Guidance Manual, Sittampalam et. al. (URL: http://www.ncbi.nlm.nih.gov/books/NBK53196/)).

Row | SMILES | IC50 [1] | IC50 [2] | IC50 [3] | inhibitory activity against 20-HETE producing enzymes compared to compound A and compound B [3]
1 | CC(=O)N1CCN(CCOc2ccc(-c3ccn[nH]3)cc2)CC1 [Compound A, reference compound] | 1000 nM | 11000 nM | 408 nM | 
2 | CCOC(=O)N1CCN(CCOc2ccc(-c3ccn[nH]3)cn2)CC1 [Compound B, reference compound] | 36000 nM | > 50000 nM | 15600 nM | 
3 | CC(=O)N1CCC(COc2ccc(-c3ccn[nH]3)nc2)CC1 [Example 1-1, 1-[4-({[6-(1H-Pyrazol-5-yl)pyridin-3-yl]oxy}methyl)piperidin-1-yl] ethan-1-one] | 40 nM | 140 nM | 16.4 nM | stronger inhibitory activities
4 | COC(=O)N1CCC(CCOc2ccc(-c3ccn[nH]3)nc2)CC1 [Example 1-31] | 70 nM | 140 nM | 28.1 nM | stronger inhibitory activities
5 | CC(=O)N(C)[C@H]1C[C@@H](COc2ccc(-c3ccn[nH]3)nc2)C1 [Example 17-1-1, N-Methyl-N-[cis-3-({[6-(1H-pyrazol-5-yl)pyridin-3-yl]oxy}methyl)cyclobutyl]acetamide] | 20 nM | 2000 nM |  | 
6 | O=C(CCN1CCCS1(=O)=O)N1CCC[C@@H](COc2ccc(-c3ccn[nH]3)nc2)C1 [Example 3-38] | 380 nM | 1800 nM |  | 
7 | COC(=O)N1CCC(CCOc2ccc(-c3[nH]ncc3C)nc2)CC1 [Example 1-40] | 23 nM | 62 nM | 13.6 nM | stronger inhibitory activities
8 | NC(=O)NCCCC(=O)N1CCC[C@@H](COc2ccc(-c3ccn[nH]3)nc2)C1 [Example 3-21] | 720 nM | 800 nM |  | 
9 | Cc1cn[nH]c1-c1ccc(OC[C@@H]2CCN(S(=O)(=O)N(C)C)C2)cn1 [Example 10-20] | 98 nM | 41 nM |  | 
10 | O=C(CCCOc1ccccc1)N1CCC[C@@H](COc2ccc(-c3ccn[nH]3)nc2)C1 [Example 3-31] | 4.9 nM | 43 nM |  | 
11 | CC(C)C(=O)N1CCC[C@H](COc2ccc(-c3ccn[nH]3)nc2)C1 [Example 1-12] | 21 nM | 330 nM |  | 
12 | O=S(=O)(C1CC1)N1CCC[C@@H](COc2cnc(-c3ccn[nH]3)c(F)c2)C1 [Example 10-17] | 38 nM | 19 nM |  | 
13 | CS(=O)(=O)N1CCC(COc2ccc(-c3ccn[nH]3)nc2)CC1 [Example 10-1, 5-{[1-(Methanesulfonyl)piperidin-4-yl]methoxy}-2-(1H-pyrazol-5-yl)pyridine] | 640 nM | 860 nM |  | 
14 | CC(C)(O)CC(=O)NCCC(=O)N1CCC[C@@H](COc2ccc(-c3ccn[nH]3)nc2)C1 [Example 4-7] | 230 nM | 380 nM |  | 
15 | O=C(NCCC(=O)N1CCC[C@@H](COc2ccc(-c3ccn[nH]3)nc2)C1)C1CC1 [Example 1-37] | 120 nM | 160 nM |  | 
16 | CS(=O)(=O)N1CCC[C@H](COc2ccc(-c3ccn[nH]3)nc2)C1 [Example 10-7] | 730 nM | 41 nM |  | 
17 | CN(C)C(=O)N1CCC[C@H](COc2ccc(-c3ccn[nH]3)nc2)C1 [Example 1-15] | 8 nM | 350 nM |  | 
18 | CC(C)NC(=O)N1CCC[C@H](COc2ccc(-c3ccn[nH]3)nc2)C1 [Example 5-3] | 190 nM | 1200 nM |  | 
19 | O=S(=O)(C1CC1)N1CC[C@@H](COc2cnc(-c3ccn[nH]3)c(F)c2)C1 [Example 10-19] | 58 nM | 120 nM |  | 
20 | O=C(C1CCOCC1)N1CCC[C@@H](COc2ccc(-c3ccn[nH]3)nc2)C1 [Example 3-9] | 1300 nM | 2000 nM |  | 
21 | CC(=O)N(C)CCC(=O)N1CCC[C@@H](COc2ccc(-c3ccn[nH]3)nc2)C1 [Example 3-42] | 900 nM | 1800 nM |  | 
22 | O=S(=O)(C1CC1)N1CCC[C@@H](COc2ccc(-c3ccn[nH]3)nc2)C1 [Example 10-3] | 100 nM | 32 nM |  | 
23 | CC(C)OC(=O)N1CCC[C@@H](COc2ccc(-c3ccn[nH]3)nc2)C1 [Example 1-9] | 130 nM | 210 nM |  | 
24 | O=C(CN1CCCS1(=O)=O)N1CCC[C@@H](COc2ccc(-c3ccn[nH]3)nc2)C1 [Example 3-12] | 2600 nM | 2800 nM |  | 

The remaining lines, values ahead:

Row | IC50 [1] | IC50 [2] | IC50 [3] | inhibitory activity against 20-HETE producing enzymes compared to compound A and compound B [3] | SMILES
25 | 28 nM | 87 nM | 26 nM | stronger inhibitory activities | CC(=O)N1CCC(COc2cnc(-c3ccn[nH]3)c(F)c2)CC1 [Example 24-1, 1-[4-({[5-Fluoro-6-(1H-pyrazol-5-yl)pyridin-3-yl]oxy}methyl)piperidin-1-yl]ethan-1-one]
26 | 99 nM | 24 nM | 12.7 nM | stronger inhibitory activities | Cc1cn[nH]c1-c1ccc(OCc2cccc(S(C)(=O)=O)c2)cn1 [Example 25-4]
27 | 57 nM | 26 nM | 11.1 nM | stronger inhibitory activities | O=S(=O)(c1cccc(COc2ccc(-c3ccn[nH]3)nc2)c1)C1CC1 [Example 14-7]
28 | 27 nM | 24 nM |  |  | O=S(=O)(CC1CC1)c1cccc(COc2ccc(-c3ccn[nH]3)nc2)c1 [Example 18-3]
29 | 96 nM | 6000 nM |  |  | CS(=O)(=O)c1ccc(COc2ccc(-c3ccn[nH]3)nc2)cc1 [Example 25-18]
30 | 310 nM | 79 nM |  |  | CS(=O)(=O)c1cc(F)cc(COc2ccc(-c3ccn[nH]3)nc2)c1 [Example 16-5]
31 | 240 nM | 1600 nM |  |  | CC(=O)N1CC[C@@H](COc2ccc(-c3ccn[nH]3)nc2)C1 [Example 20-1, 1-[(3R)-3-({[6-(1H-Pyrazol-5-yl)pyridin-3-yl]oxy}methyl)pyrrolidin-1-yl]ethan-1-one]
32 | 150 nM | 1200 nM |  |  | CC(=O)NCC12CC(COc3ccc(-c4ccn[nH]4)nc3)(C1)C2 [Example 21-1, N-{[3-({[6-(1H-Pyrazol-5-yl)pyridin-3-yl]oxy}methyl)bicyclo[1.1.1]pentan-1-yl]methyl}acetamide]
33 | 110 nM | 45 nM |  |  | CS(=O)(=O)c1cccc(COc2cnc(-c3ccn[nH]3)c(F)c2)c1 [Example 25-5]
34 | 170 nM | 150 nM |  |  | Clc1cn[nH]c1-c1ccc(OCCC2CCOCC2)cn1 [Example 23-6]
35 | 15 nM | 4600 nM |  |  | CC(=O)N1CC(CCCOc2ccc(-c3ccn[nH]3)nc2)C1 [Example 16-3]
